Data on 3 compounds can be found in patent US9420813B2, “Sweetener” (AJINOMOTO CO., INC., priority 2007, dated 2016).

In this assay the target is T1, human calcium receptor (Homo sapiens, UniProt P41180).
T1 construct: expressed in transfected cells; host or cells: Xenopus laevis oocytes injected with receptor cRNA; the gene was amplified by PCR from human kidney cDNA (Clontech) and cloned in pBR322
T1 sequence (P41180 20-1078): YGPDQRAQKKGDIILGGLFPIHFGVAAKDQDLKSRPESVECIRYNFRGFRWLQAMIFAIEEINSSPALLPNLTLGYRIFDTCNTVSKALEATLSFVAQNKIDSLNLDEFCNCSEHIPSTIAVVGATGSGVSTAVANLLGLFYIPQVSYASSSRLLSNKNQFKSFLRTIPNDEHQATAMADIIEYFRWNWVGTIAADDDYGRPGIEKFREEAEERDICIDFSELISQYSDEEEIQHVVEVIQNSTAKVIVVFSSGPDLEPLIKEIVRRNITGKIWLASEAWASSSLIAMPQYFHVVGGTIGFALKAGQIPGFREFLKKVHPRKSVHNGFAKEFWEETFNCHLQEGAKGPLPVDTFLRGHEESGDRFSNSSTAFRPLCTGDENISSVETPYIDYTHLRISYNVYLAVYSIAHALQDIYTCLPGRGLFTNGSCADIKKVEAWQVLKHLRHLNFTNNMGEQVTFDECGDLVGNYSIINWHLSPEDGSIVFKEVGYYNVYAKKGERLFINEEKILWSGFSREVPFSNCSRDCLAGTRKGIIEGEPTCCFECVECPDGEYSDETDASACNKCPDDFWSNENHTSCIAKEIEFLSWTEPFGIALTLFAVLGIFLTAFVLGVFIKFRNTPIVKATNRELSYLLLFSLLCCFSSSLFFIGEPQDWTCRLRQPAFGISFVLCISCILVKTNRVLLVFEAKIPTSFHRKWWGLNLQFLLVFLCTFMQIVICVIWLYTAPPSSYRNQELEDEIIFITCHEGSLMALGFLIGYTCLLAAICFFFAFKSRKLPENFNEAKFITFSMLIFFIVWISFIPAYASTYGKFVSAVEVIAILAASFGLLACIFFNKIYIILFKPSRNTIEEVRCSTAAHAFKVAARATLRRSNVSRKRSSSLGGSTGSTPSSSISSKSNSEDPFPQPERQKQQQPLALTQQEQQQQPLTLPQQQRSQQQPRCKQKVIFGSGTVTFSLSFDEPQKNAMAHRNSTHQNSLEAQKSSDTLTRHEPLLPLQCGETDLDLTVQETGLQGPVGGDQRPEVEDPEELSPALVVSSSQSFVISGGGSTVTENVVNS
Kind of assay: Calcium receptor-activating effect, Ca ion concentration-dependent Cl ionic current in Xenopus laevis oocyte expression system. It counts as cell-based. As to conditions: for Activity (lowest concentration at which current is detected): peptide added at 1,000 to 0.1 μM, Ca ion concentration-dependent Cl response current, oocytes voltage-clamped at −70 mV. As to the method: For evaluation of the calcium receptor-activating effect, Ca ion concentration-dependent Cl ionic current measuring method using a Xenopus laevis oocyte expression system was used. If activator is added to Xenopus laevis oocytes in which the calcium receptor is expressed, intracellular Ca ions increase. Then, the Ca ion concentration-dependent Cl channel opens, and the intracellular current value changes as an ionic current. By measuring the change in the intracellular current value, whether the calcium receptor-activating effect is present or not can be determined.
Specifically, the abdomen of Xenopus laevis was opened, and an egg batch was taken out and then treated with a 1% collagenase solution at 20° C. for 2 hours to obtain individual oocytes. Into each oocyte, 50 nl of 1 μg/μl receptor cRNA or 50 nl of sterilized water per oocyte were injected by using a micro glass capillary, and the oocytes were cultured at 18° C. for 2 to 3 days. For the culture, a solution obtained by adding 2 mM of pyruvic acid, 10 U/ml of penicillin and 10 μg/ml of streptomycin to the solution in Reference Example 2 was used. After the culture, a test solution was added to the oocytes injected with cRNA or sterilized water. Electrophysiological measurement was performed by using an amplifier Geneclamp 500 (manufactured by Axon) and recording software AxoScope 9.0 (manufactured by Axon). The oocytes were voltage-clamped at −70 mV by the double electrode voltage clamp method, and the intracellular current via the Ca ion concentration-dependent Cl ion was measured. The maximum value of the intracellular currents was defined as the response current value.
The ability of L-amino acids to activate the calcium receptor was evaluated by using the method described in Reference Example 6. That is, oocytes injected with cRNA of the calcium receptor or sterilized water were prepared, and voltage-clamped at −70 mV by the double electrode voltage clamp method. To the voltage-clamped oocytes, alanine (10 mM), arginine (10 mM), asparagine (10 mM), aspartic acid (10 mM), cysteine (10 mM), glutamine (10 mM), glutamic acid (10 mM), glycine (10 mM), histidine (10 mM), isoleucine (10 mM), leucine (10 mM), lysine (10 mM), methionine (10 mM), phenylalanine (10 mM), proline (10 mM), serine (10 mM), threonine (10 mM), tryptophan (10 mM), tyrosine (10 mM), valine (10 mM), ornithine (10 mM), taurine (10 mM) or hydroxyproline (10 mM) was added, and Ca ion concentration-dependent Cl response current was measured. […] 25, 2000, 97(9): 4814-9.
The effect of D-cysteine for activating a calcium receptor was evaluated by using the method described in Reference Example 6. That is, oocytes injected with cRNA of the calcium receptor or sterilized water were prepared, and voltage-clamped at −70 mV by the double electrode voltage clamp method. To the voltage-clamped oocytes, D-cysteine (10 mM), L-cysteine (10 mM), D-tryptophan (10 mM) or L-tryptophan (10 mM) was added, and Ca ion concentration-dependent Cl response current was measured.
The effect of peptide for activating calcium receptor was evaluated by using the method described in Reference Example 6. That is, oocytes injected with cRNA of the calcium receptor or sterilized water were prepared, and voltage-clamped at −70 mV by the double electrode voltage clamp method. To the voltage-clamped oocytes, γ-Glu-Cys-Gly (50 μM), γ-Glu-Cys(SNO)-Gly (50 μM), γ-Glu-Ala (50 μM), γ-Glu-Gly (500 μM), γ-Glu-Cys (50 μM), γ-Glu-Met (500 μM), γ-Glu-Thr (50 μM), γ-Glu-Val (50 μM), γ-Glu-Orn (500 μM), Asp-Gly (1 mM), Cys-Gly (1 mM), Cys-Met (1 mM), Glu-Cys (50 μM), Gly-Cys (500 μM) or Leu-Asp (1 mM) was added, and Ca ion concentration-dependent Cl response current was measured.
The ability of a peptide to activate calcium receptor was evaluated in the same manner as that of Reference Example 10.

*1 amine or outer side, *2 acyl side, *3 side chain or, on linkers, in order; H or OH if unused. Where no end group is shown, it is not given here. [ ]: non-standard residue; d: D form. γGlu = O=C(O)[C@H](CCC(=O)[*:2])N[*:1]; Abu = CC[C@H](N)C(=O)O

For the compound `N[C@@H](CCC(=O)N[C@@H](CS)C(=O)NCC(=O)O)C(=O)O` [γ-Glu-Cys-Gly, reference compound], the “effect for activating calcium receptor (Cl response current)” value (peptide added at 50 μM) is on record as “definite effect for activating calcium receptor”.

As to [γGlu]-[Abu]-Gly, the “Activity (lowest concentration at which current is detected)” value was determined as 3 µM. The same measure, in the same setting: the same measure for [γGlu]-Val-Gly: 0.1 µM.
